Columns and labels:
Assay type in all cases: in vivo
[1] = tested on: Setaria italica (SETIT); assay: Post-emergence herbicidal activity, SETIT; conditions: % visual injury compared to treatment control, 7 days after treatment
Description: (§1) Selected compounds of the invention were screened at 100 PPM against Amaranthus retroflexus (AMARE), Echinochloa crus-galli (ECHCG), Kochia scoparia (KCHSC), and Setaria italica (SETIT).
(§2) Accordingly, PPO susceptible weed seeds were sown in 5″×5″ pots by quadrant containing Miracle-Gro potting mix (Scotts Miracle-Gro Company, Marysville, OH, USA) and grown in a Conviron growth chamber with appropriate growth conditions (temperature of 26/22° C. with photoperiod 16/8 h light day/night and light intensity of 300 μmol m^−2s^−1 supplemented by LED lamps). Relative humidity in the growth chamber was maintained at around 65%. Plants were grown until 2-4 leaf stage and thinned to 5-8 plants per quadrant per species.
(§3) Compounds were formulated in 25% Acetone, 1% Crop oil concentrate (COC-Agridex), 0.1% Tween-20, and 2.5% Ammonium sulphate (AMS). Three replicate pots were treated with each compound. Treatment consisting of the above formulation excluding active compound was applied as a treatment control (TC). Plants were treated with the test compound solution in a laboratory spray chamber fitted with 8003 flat fan nozzles calibrated to deliver 187-200 L ha^−1 at 269 kPa. Plants were placed back in the growth chamber and evaluated for % visual injury compared to TC 7 days after treatment (DAT). The data presented in Table 3 indicate a percentage control, where 100% control indicates complete inhibition of growth.

[2] = tested on: Echinochloa crus-galli (ECHCG); assay: Post-emergence herbicidal activity, ECHCG; conditions: % visual injury compared to treatment control, 7 days after treatment
Description: as §1, §2, §3

[3] = tested on: Kochia scoparia (KCHSC); assay: Post-emergence herbicidal activity, KCHSC; conditions: % visual injury compared to treatment control, 7 days after treatment
Description: as §1, §2, §3

[4] = tested on: Amaranthus retroflexus (AMARE); assay: Post-emergence herbicidal activity, AMARE; conditions: % visual injury compared to treatment control, 7 days after treatment
Description: as §1, §2, §3

[5] = tested on: Amaranthus retroflexus (AMARE); assay: Pre-emergence herbicidal activity, AMARE; conditions: % growth and germination inhibition compared to treatment control, 7 days after treatment
Description: Selected compounds of the invention were screened at 200 PPM against Amaranthus retroflexus (AMARE).
Accordingly, PPO susceptible weed seeds were planted in 5″×5″ pots by quadrant containing custom field soil mix (Sandy loam with 4.7% OM, pH 7.0) and covered with a fine layer of the same soil. Compounds were formulated in 25% Acetone, 1% Crop oil concentrate (COC-Agridex), 0.1% Tween-20, and 2.5% Ammonium sulphate (AMS). Three replicate pots were treated with each compound. Treatment consisting of the above formulation excluding active compound was applied as a treatment control (TC). Pots were treated with the test compound solution in a laboratory spray chamber fitted with 8003 flat fan nozzles calibrated to deliver 187-200 L ha-1 at 269 kPa. Compound was incorporated into the soil by simulating rainfall equivalent to 0.2 mm using the same track sprayer. Subsequently, pots were irrigated from the bottom until assessed for % growth and germination inhibition. Pots were placed back in the growth chamber and evaluated for % growth and germination inhibition compared to TC 7 days after treatment (DAT). Growth conditions are similar to the ones mentioned in POST emergence assay.
The data presented in Table 4 indicate a percentage control, where 100% control indicates complete inhibition of growth and germination.

Structure (SMILES)	Post-emergence (100 ppm) SETIT, percentage control [1]	Post-emergence (100 ppm) ECHCG, percentage control [2]	Post-emergence (100 ppm) KCHSC, percentage control [3]	Post-emergence (100 ppm) AMARE, percentage control [4]	AMARE pre-emergence (200 ppm), percentage control [5]
COC(=O)CCNC(=O)[C@@H](C)Sc1cc(-c2c(F)c(F)c(F)c(F)c2F)c(F)cc1Cl (single isomer, unassigned) [Compound 6]	8%	10%	12%	100%	–
C[C@H](Sc1cc(-c2c(F)c(F)c(F)c(F)c2F)c(F)cc1Cl)C(=O)NCCC(=O)O [Compound 7, (S)-3-(2-((4-chloro-2′,3′,4′,5′,6,6′-hexafluoro-[1,1′-biphenyl]-3-yl)thio)propanamido)propanoic acid]	28%	37%	20%	100%	–
C[C@@H](Sc1cc(-c2c(F)c(F)c(F)c(F)c2F)c(F)cc1Cl)C(=O)NCCC(=O)O [Compound 8, (R)-3-(2-((4-chloro-2′,3′,4′,5′,6,6′-hexafluoro-[1,1′-biphenyl]-3-yl)thio)propanamido)propanoic acid]	23%	28%	23%	100%	–
CN(C)C(=O)NS(=O)(=O)c1cc(-c2c(F)c(F)c(F)c(F)c2F)c(F)cc1Cl [Compound 16, 4-chloro-N-(dimethylcarbamoyl)-2′,3′,4′,5′,6,6′-hexafluoro-[1,1′-biphenyl]-3-sulfonamide]	43%	95%	8%	33%	100%
CC(=O)NS(=O)(=O)c1cc(-c2c(F)c(F)c(F)c(F)c2F)c(F)cc1Cl [Compound 17, N-((4-chloro-2′,3′,4′,5′,6,6′-hexafluoro-[1,1′-biphenyl]-3-yl)sulfonyl)acetamide]	100%	100%	13%	88%	100%
CCC(=O)NS(=O)(=O)c1cc(-c2c(F)c(F)c(F)c(F)c2F)c(F)cc1Cl [Compound 18, N-((4-chloro-2′,3′,4′,5′,6,6′-hexafluoro-[1,1′-biphenyl]-3-yl)sulfonyl)propionamide]	100%	100%	23%	100%	100%
CCC(=O)NS(=O)(=O)c1cc(-c2c(F)cc(F)c(F)c2F)c(F)cc1Cl [Compound 26, N-((4-chloro-2′,3′,4′,6,6′-pentafluoro-[1,1′-biphenyl]-3-yl)sulfonyl)propionamide]	100%	100%	15%	100%	100%

Source: patent publication US11889833B2, “Protoporphyrinogen oxidase inhibitors” (Enko Chem, Inc., priority 2022, dated 2024)
